{
  "source": "patent US20230103142A1",
  "about": "“SMALL MOLECULE REGULATORS OF NOTCH1 AND USES THEREOF” (THE PENN STATE RESEARCH FOUNDATION, priority 2020, published 2023)",
  "key": {"Notch3 in HCT116 cells": {"system": "Notch3 in HCT116 cells", "assay": "immunoblot with Notch3 antibody", "details": "HCT116, IC50 concentration, 12 h and 24 h", "source_text": "Data are presented as the mean±standard deviation (SEM/SD) of three independent experiments. The Student's t-test was used to calculate the statistical significance between the vehicle and treatment at each concentration. *p<0.05 and **p<0.01."}, "[1]": {"system": "ALDH+ xenotransplanted tumors", "assay": "ALDH+ xenotransplant tumor burden", "details": "ALDH+ xenotransplanted mice"}, "[2]": {"system": "Bladder Cancer cells (TCCSUP and HT1376)", "assay": "MTT assay in bladder cancer cells with low basal Notch1", "details": "low basal level of Notch1, 24 h", "source_text": "Six biological replicates used for MTT assays and it was repeated twice for each experiment. Data are presented, from independent experiments, as the mean±standard deviation (SEM/SD). The Student's t-test was used to calculate the statistical significance between the vehicle and treatment at each concentration. *p<0.05, **p<0.01 and ***p<0.001. […] Six biological replicates used for MTT assays and it was repeated twice for each experiment. Data are presented, from independent experiments, as the mean±standard deviation (SEM/SD). The Student's t-test was used to calculate the statistical significance between the vehicle and treatment at each concentration. *p<0.05 and # Not significant.\nSix biological replicates used for MTT assays and it was repeated twice for each experiment."}, "[3]": {"system": "proteasome in ALDH+ cells", "details": "15 and 30 min", "from_the_text": "Commercially available positive and negative controls were used for these experiments. […] Next, ubiquitination-associated NRR of Notch 1 degradation were examined."}, "SW-620 cells": {"system": "SW-620 cells", "details": "SW-620, 24 h", "procedure": "(§1) Flow cytometry analysis: 0.3×10^6 cells seeded in a 6 well plate and were cultured until 70-80% confluence was achieved. […] To quantify apoptosis, flow cytometry analysis of the Annexin V-FITC against Propidium Iodide (PI) assay was performed following a previously described protocol. The Apoptosis detection kit was purchased from BD Pharminogen™, San Diego, Calif., USA. All experiments were repeated in triplicate to achieve statistical relevance."}, "HCT116 cells [4]": {"system": "HCT116 cells", "details": "HCT116, 24 h", "procedure": "as §1"}, "Notch1/HCT116 clone C4 [5]": {"system": "Notch1/HCT116 clone C4", "details": "C4, IC50 concentration", "procedure": "as §1"}, "Notch1/HCT116 clone C5 [6]": {"system": "Notch1/HCT116 clone C5", "details": "C5, IC50 concentration", "procedure": "as §1"}, "pCMV/HCT116 cells [7]": {"system": "pCMV/HCT116 cells", "details": "pCMV/HCT116, IC50 concentration", "procedure": "as §1"}, "HCT116 cells [8]": {"system": "HCT116 cells", "details": "HCT116, 24 h", "procedure": "(§2) Cell invasion and migration assays: The invasive capability of pCMV/HCT116 and Notch1/HCT116 was evaluated in Boyden chambers, as described in earlier studies. HCT 116, SW-620, pCMV/HCT116, and Notch1/HCT116 cells were analyzed for migration capability with protocols already described in an earlier study. All experiments were performed in triplicate to achieve statistical relevance.", "remark": "listed apart in the source"}, "SW620 cells": {"system": "SW620 cells", "details": "SW620, 24 h", "procedure": "as §2"}, "Notch1/HCT116 clone C4 [9]": {"system": "Notch1/HCT116 clone C4", "details": "C4, IC50 dose, 24 h", "procedure": "as §2"}, "Notch1/HCT116 clone C5 [10]": {"system": "Notch1/HCT116 clone C5", "details": "C5, IC50 dose, 24 h", "procedure": "as §2"}, "pCMV/HCT116 cells [11]": {"system": "pCMV/HCT116 cells", "details": "pCMV/HCT116, IC50 dose, 24 h", "procedure": "as §2"}, "[12]": {"biological_target": "NRR of Notch1 in HCT116 cells (Homo sapiens, UniProt P46531)", "sequence (P46531 19-2555)": "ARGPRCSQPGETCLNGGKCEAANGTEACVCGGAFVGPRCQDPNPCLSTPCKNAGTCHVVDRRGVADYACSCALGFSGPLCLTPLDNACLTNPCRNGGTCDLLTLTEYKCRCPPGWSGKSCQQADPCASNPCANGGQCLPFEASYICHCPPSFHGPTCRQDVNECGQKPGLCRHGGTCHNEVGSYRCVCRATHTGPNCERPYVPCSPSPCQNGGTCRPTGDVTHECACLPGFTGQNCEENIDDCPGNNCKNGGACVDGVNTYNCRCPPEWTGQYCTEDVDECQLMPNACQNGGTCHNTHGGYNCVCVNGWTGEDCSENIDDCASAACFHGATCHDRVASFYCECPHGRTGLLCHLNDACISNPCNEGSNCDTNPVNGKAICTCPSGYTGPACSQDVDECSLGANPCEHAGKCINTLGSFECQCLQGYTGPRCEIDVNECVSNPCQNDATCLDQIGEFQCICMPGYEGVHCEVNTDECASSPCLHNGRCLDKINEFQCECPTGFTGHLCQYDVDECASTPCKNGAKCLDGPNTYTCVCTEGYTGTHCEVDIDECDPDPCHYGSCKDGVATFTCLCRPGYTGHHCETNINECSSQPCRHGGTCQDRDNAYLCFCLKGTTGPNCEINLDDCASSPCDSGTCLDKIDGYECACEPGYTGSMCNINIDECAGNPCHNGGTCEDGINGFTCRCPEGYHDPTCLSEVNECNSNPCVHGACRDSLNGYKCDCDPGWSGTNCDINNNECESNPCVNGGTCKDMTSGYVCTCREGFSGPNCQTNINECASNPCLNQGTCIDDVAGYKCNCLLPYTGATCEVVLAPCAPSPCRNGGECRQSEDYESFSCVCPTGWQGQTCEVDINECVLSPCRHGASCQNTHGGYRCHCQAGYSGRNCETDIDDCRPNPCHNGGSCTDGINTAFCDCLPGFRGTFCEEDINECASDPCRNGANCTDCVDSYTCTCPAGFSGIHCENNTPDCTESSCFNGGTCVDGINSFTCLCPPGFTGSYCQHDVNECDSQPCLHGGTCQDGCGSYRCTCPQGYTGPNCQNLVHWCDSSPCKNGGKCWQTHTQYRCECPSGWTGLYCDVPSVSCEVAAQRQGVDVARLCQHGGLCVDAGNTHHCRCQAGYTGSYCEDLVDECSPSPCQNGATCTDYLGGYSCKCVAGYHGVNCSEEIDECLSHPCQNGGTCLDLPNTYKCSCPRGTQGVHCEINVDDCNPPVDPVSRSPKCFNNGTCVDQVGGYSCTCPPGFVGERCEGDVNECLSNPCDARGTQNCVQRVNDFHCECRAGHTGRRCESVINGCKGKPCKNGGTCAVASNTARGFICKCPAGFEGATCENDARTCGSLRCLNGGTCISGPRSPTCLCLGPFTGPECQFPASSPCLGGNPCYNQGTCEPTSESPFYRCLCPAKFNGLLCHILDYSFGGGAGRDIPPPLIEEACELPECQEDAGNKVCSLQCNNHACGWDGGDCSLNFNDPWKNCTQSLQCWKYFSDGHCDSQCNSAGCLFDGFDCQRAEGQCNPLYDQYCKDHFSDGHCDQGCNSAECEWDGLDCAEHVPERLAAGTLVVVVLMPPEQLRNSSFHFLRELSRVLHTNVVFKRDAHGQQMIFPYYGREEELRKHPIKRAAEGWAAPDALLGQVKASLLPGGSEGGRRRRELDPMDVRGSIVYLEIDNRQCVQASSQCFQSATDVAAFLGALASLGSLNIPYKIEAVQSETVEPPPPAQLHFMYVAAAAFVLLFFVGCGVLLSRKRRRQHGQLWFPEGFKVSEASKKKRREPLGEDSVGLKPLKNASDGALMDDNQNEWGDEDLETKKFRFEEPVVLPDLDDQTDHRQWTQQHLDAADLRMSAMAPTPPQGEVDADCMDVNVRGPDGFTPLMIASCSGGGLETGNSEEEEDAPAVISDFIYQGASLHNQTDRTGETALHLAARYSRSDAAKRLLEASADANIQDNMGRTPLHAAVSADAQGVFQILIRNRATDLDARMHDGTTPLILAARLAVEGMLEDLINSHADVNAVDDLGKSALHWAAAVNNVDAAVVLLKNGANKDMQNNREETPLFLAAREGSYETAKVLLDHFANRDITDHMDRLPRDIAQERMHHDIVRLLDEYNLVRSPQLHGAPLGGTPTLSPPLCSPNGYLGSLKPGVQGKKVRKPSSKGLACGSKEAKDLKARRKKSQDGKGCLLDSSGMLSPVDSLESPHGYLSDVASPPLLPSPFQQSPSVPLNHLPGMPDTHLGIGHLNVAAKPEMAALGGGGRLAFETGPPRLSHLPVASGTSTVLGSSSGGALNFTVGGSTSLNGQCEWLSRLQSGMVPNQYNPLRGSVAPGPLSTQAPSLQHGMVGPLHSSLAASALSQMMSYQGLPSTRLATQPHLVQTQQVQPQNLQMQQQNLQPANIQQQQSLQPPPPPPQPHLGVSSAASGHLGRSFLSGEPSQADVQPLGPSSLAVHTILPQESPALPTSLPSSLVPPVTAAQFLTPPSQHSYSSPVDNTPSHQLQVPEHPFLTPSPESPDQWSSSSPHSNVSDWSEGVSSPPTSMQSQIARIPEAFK", "details": "ASR490-treated HCT116 cells", "procedure": "(§3) Binding Studies. The protein-ligand binding was first studied by cellular thermal shift assay (CETSA) by following previously described protocol. […] Equal amount of cell lysate was used for ELISA with NRR antibody (Cat: NBP2-62557; Novus Biologicals). GloMelt Thermal Shift Protein Stability assay was performed as per the kit instructions (GloMelt™ Thermal Shift Protein Stability Kit; Biotium; Fermont, Calif.). […] A protein melt run profile was generated and Tm (melting temperature) was calculated using DNA melt curve software. To analyze protein melting, the Tm was considered at the lowest −dF/dT value (at the lowest point on the curve)."}, "purified NRR protein": {"system": "purified NRR protein", "details": "vs vehicle (DMSO)", "procedure": "as §3"}, "[13]": {"system": "Notch1/HCT116 (C4) xenografts", "assay": "xenograft tumor growth study", "details": "5 mg/kg intraperitoneally thrice a week, 4 weeks", "quoted_text": "Xenograft studies: Six- to eight-week-old BALB/c athymic nude mice (nu/nu) (Jackson Laboratory: Bar Harbor, Me., USA) were subcutaneously injected with pCMV/HCT116 and C4 (1×10^6 cells). The monitoring and measurements were performed."}, "[14]": {"system": "NICD and HES1 in HCT116 cells", "details": "HCT116, IC50 concentration", "procedure": "(§4) Protein extraction and western blotting: Mammalian Protein Extraction Reagent (Thermo Scientific, Rockford, Ill., USA) was used to extract total protein from pCMV/HCT116, C4, and C5 cells as well as bladder cancer cells were prepared with the according to the manufacturer's instructions. Western blotting was performed using specific antibodies against Notch1 (Cat: 3447S), Bcl-2 (Cat: 2872S), E-cadherin (Cat: 3195S), N-cadherin (Cat: 13116S), Snail (Cat: 3879S), β-catenin (Cat: 8480S), NF-κB (p65), Bax (Cat: 5023S), cleaved PARP (Cat: 9541L) (Cell Signaling Technology; Danvers, Mass., USA), and β-actin (Santa Cruz Biotechnologies, Dallas, Tex., USA), HES1 (Genescript; Lot QC1851, Piscataway, N.J., USA). Actin presented in the images represent the loading control for one or more markers from same cell lysates. Chemiluminescence was used to detect the positive bands on the membrane."}, "[15]": {"system": "NICD and HES1 in SW620 cells", "details": "SW620, IC50 concentration", "procedure": "as §4"}},
  "data": [
    {"smiles": "CC1=C(CO)C(=O)O[C@@H]([C@@H](C)[C@H]2CC[C@H]3[C@@H]4C[C@H]5O[C@]56[C@@H](OC(=O)c5ccccn5)C=CC(=O)[C@]6(C)[C@H]4CC[C@]23C)C1", "note": "[ASR490, Pyridine-2-carboxylic acid {17-[1-(5-hydroxymethyl-4-methyl-6-oxo-3,6-dihydro-2H-pyran-2-yl)-ethyl]-10,13-dimethyl-1-oxo, 4,6,7,8,9,10,11,12,13,14,15,16,17-tetradecahydro-20-oxacyclopropa[5,6]cyclopenta[a]phenanthren-4-yl}ester]", "values": [
      {"measurement": "Notch3 expression", "setting": "Notch3 in HCT116 cells", "result": "no change"},
      {"measurement": "tumor burden", "setting": "[1]", "result": "significantly reduced tumor burden"},
      {"measurement": "growth of bladder cancer cells", "setting": "[2]", "result": "failed inhibit their growth"},
      {"measurement": "proteasome inhibition", "setting": "[3]", "result": "not a proteasomal inhibitor"},
      {"measurement": "induction of apoptosis", "setting": "SW-620 cells", "result": 9.57, "unit": "%"},
      {"measurement": "induction of apoptosis", "setting": "HCT116 cells [4]", "result": 19.9, "unit": "%"},
      {"measurement": "induction of apoptosis", "setting": "Notch1/HCT116 clone C4 [5]", "result": 13.4, "unit": "%"},
      {"measurement": "induction of apoptosis", "setting": "Notch1/HCT116 clone C5 [6]", "result": 13.2, "unit": "%"},
      {"measurement": "induction of apoptosis", "setting": "pCMV/HCT116 cells [7]", "result": 25.8, "unit": "%"},
      {"measurement": "inhibition of migratory capability", "setting": "HCT116 cells [8]", "result": 25.18, "unit": "%"},
      {"measurement": "inhibition of migratory capability", "setting": "SW620 cells", "result": 32.36, "unit": "%"},
      {"measurement": "decline in invasive capacity", "setting": "Notch1/HCT116 clone C4 [9]", "result": 60.75, "unit": "%"},
      {"measurement": "decline in invasive capacity", "setting": "Notch1/HCT116 clone C5 [10]", "result": 65.5, "unit": "%"},
      {"measurement": "decline in invasive capacity", "setting": "pCMV/HCT116 cells [11]", "result": 40, "unit": "%"},
      {"measurement": "decline in migratory potential", "setting": "pCMV/HCT116 cells [11]", "result": 25.11, "unit": "%"},
      {"measurement": "binding to NRR by CETSA", "setting": "[12]", "result": "binds directly to NRR"},
      {"measurement": "thermal stabilization of NRR protein", "setting": "purified NRR protein", "result": "increased stabilization of NRR protein"},
      {"measurement": "tumor growth", "setting": "[13]", "result": "significant tumor growth inhibition"},
      {"measurement": "expression of NICD and HES1 protein", "setting": "[14]", "result": "Significant downregulation"},
      {"measurement": "expression of NICD and HES1 protein", "setting": "[15]", "result": "Significant downregulation"}
    ]}
  ]
}
